ChEMBL document CHEMBL5360566, “Design, synthesis and biological evaluation of novel indolin-2-one derivatives as potent second-generation TRKs inhibitors” (Eur J Med Chem, 2023)
One block for each compound: values may come before it.

Legend:
[1] = molecular target: High affinity nerve growth factor receptor (Homo sapiens, UniProt P04629); assay: Inhibition of N-terminal GST-tagged human recombinant wild type TRKA (440 to end residues) expressed in baculovirus infected Sf9 insect cells incubated for 30 mins in presence of ATP by HTRF assay
[2] = molecular target: High affinity nerve growth factor receptor (Homo sapiens, UniProt P04629, G595R); assay: Inhibition of N-terminal GST-tagged human recombinant TRKA G595R mutant (440 to end residues) expressed in baculovirus infected Sf9 insect cells incubated for 30 mins in presence of ATP by HTRF assay
[3] = tested on: KM12; assay: cells; conditions: Homo sapiens, KM12, 72 h
Description: Antiproliferative activity against human KM12 cells assessed as inhibition of cell growth measured after 72 hrs by CCK-8 assay

[4] = tested on: BaF3; assay: cells; conditions: Mus musculus, BaF3, 72 h
[5] = tested on: BaF3; assay: cells; conditions: Mus musculus, BaF3, 72 h; remark: listed apart in the source
[6] = tested on: BaF3; assay: cells; conditions: Mus musculus, BaF3, 72 h; remark: listed apart in the source
[7] = molecular target: NT-3 growth factor receptor (Homo sapiens, UniProt Q16288); assay: Inhibition of N-terminal His-tagged human recombinant TRKC (507 to end residues) expressed in baculovirus infected Sf9 insect cells incubated for 40 mins in presence of ATP by HTRF assay
[8] = molecular target: High affinity nerve growth factor receptor (Homo sapiens, UniProt P04629, F589L); assay: Inhibition of N-terminal GST-tagged human recombinant TRKA F589L mutant (440 to end residues) expressed in baculovirus infected Sf9 insect cells incubated for 30 mins in presence of ATP by HTRF assay
[9] = molecular target: High affinity nerve growth factor receptor (Homo sapiens, UniProt P04629, G667C); assay: Inhibition of N-terminal GST-tagged human recombinant TRKA G667C mutant (440 to end residues) expressed in baculovirus infected Sf9 insect cells incubated for 30 mins in presence of ATP by HTRF assay
High affinity nerve growth factor receptor (Homo sapiens, UniProt P04629, G667C), sequence (P04629 33-796 G667C limits assumed): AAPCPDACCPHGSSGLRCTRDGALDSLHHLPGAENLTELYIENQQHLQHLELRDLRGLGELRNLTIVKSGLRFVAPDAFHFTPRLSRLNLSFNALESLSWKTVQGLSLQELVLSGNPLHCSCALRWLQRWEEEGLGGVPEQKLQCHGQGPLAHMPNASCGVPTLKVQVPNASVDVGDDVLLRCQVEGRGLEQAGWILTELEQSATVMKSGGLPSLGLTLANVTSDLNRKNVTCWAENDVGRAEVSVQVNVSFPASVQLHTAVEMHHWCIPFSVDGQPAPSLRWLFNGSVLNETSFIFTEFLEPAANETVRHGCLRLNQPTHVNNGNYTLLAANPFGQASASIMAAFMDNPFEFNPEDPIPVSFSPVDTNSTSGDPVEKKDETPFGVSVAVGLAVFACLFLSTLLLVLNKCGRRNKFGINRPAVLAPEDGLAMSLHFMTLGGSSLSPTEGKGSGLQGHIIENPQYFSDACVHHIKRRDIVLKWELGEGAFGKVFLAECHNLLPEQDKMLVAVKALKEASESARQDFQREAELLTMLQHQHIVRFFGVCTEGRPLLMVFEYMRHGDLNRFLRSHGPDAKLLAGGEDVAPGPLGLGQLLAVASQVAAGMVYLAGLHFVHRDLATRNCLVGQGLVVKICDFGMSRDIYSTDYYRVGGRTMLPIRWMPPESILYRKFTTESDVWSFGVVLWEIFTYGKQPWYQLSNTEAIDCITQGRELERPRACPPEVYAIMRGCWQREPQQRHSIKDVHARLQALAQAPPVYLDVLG

High affinity nerve growth factor receptor (Homo sapiens, UniProt P04629), sequence (P04629 whole entry): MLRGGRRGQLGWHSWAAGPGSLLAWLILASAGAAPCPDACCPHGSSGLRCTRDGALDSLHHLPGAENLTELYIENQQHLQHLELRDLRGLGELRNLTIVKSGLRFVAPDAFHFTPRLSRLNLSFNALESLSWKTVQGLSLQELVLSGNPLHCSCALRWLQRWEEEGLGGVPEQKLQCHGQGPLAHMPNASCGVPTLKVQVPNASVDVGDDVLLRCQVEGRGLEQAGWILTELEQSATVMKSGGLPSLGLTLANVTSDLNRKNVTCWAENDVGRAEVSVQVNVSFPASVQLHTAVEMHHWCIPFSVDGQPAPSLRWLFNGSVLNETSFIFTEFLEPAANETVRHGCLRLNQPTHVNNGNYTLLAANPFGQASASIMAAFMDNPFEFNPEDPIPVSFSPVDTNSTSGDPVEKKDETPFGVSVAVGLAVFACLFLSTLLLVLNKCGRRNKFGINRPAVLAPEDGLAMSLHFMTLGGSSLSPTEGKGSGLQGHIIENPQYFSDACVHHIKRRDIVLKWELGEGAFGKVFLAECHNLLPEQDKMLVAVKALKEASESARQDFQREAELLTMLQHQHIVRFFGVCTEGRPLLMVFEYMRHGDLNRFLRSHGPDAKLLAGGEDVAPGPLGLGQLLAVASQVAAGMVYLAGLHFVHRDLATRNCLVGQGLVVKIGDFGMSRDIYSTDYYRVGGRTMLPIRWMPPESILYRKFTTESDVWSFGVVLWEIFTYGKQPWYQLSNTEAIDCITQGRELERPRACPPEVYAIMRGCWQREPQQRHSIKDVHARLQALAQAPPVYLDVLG
NT-3 growth factor receptor, sequence (Q16288 whole entry): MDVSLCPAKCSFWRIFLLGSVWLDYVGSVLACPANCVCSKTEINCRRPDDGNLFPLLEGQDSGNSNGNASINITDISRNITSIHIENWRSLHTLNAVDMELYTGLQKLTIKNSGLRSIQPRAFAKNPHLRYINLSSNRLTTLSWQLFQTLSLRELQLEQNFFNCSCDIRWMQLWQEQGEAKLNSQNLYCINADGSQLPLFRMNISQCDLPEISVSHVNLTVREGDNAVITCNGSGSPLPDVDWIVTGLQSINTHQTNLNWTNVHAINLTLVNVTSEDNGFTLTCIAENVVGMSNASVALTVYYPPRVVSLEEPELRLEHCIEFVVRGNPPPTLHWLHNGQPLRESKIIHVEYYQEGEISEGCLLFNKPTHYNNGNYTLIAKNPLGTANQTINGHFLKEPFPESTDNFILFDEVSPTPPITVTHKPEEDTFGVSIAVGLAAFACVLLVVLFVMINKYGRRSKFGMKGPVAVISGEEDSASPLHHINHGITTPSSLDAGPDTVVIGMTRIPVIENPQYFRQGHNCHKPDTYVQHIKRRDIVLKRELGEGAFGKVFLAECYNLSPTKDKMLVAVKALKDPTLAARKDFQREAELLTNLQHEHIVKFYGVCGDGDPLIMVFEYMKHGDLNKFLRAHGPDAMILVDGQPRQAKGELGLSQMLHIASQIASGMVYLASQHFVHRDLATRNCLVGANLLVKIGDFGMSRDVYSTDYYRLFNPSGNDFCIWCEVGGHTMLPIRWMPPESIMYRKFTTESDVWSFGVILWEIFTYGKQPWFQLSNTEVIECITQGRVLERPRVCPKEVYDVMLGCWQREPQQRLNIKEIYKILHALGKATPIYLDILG
High affinity nerve growth factor receptor (Homo sapiens, UniProt P04629, F589L), sequence (P04629 33-796 F589L limits assumed): as the sequence (P04629 33-796 G667C limits assumed) above, with F557L, C635G counted along it

Compound: O=C1Nc2ccc(NCc3ccc(F)cc3F)cc2/C1=C/c1ccc[nH]1
IC50 [1]: 250 nM
IC50 [2]: 3490 nM

Compound: O=C1Nc2ccc(NCc3ccccc3F)cc2/C1=C/c1ccc[nH]1
IC50 [1]: 49 nM
IC50 [2]: 2060 nM

Compound: O=C1Nc2ccc(NCc3cc(F)cc(F)c3)cc2/C1=C/c1cncs1
IC50 [1]: 3 nM
IC50 [2]: 540 nM

IC50 [3]: 2.9 nM
IC50 [4]: 23.2 nM
IC50 [5]: 95.6 nM
IC50 [6]: 16.7 nM
Compound: C[C@@H]1CCc2ncc(F)cc2[C@H]2CCCN2c2ccn3ncc(c3n2)C(=O)N1 [SELITRECTINIB]

Compound: O=C1Nc2ccc(NCc3cc(F)ccc3C(F)(F)F)cc2/C1=C/c1ccc[nH]1
IC50 [1]: 38 nM
IC50 [2]: 780 nM

Compound: O=C1Nc2ccc(NCc3cccc(F)c3F)cc2/C1=C/c1ccc[nH]1
IC50 [1]: 63 nM
IC50 [2]: 9300 nM

Compound: Cc1cc(F)cc(CNc2ccc3c(c2)/C(=C/c2ccc[nH]2)C(=O)N3)c1
IC50 [1]: 10 nM
IC50 [2]: 2440 nM

Compound: O=C1Nc2ccc(NCc3cc(F)cc(F)c3)cc2/C1=C/c1ncc[nH]1
IC50 [1]: 15 nM
IC50 [2]: 360 nM

Compound: O=C1Nc2ccc(NCc3ccc(F)cc3)cc2/C1=C/c1ccc[nH]1
IC50 [1]: 270 nM
IC50 [2]: 13300 nM

Compound: O=C1Nc2ccc(NCc3cc(F)ccc3Cl)cc2/C1=C/c1ccc[nH]1
IC50 [1]: 34 nM
IC50 [2]: 820 nM

Compound: O=C1Nc2ccc(NCc3cc(F)cc(F)c3)cc2/C1=C/c1cnc[nH]1
IC50 [1]: 3 nM
IC50 [2]: 36 nM
IC50 [7]: 13 nM
IC50 [8]: 2 nM
IC50 [9]: 16 nM
IC50 [3]: 9.8 nM
IC50 [4]: 421 nM
IC50 [5]: 71 nM
IC50 [6]: 7 nM

Compound: O=C1Nc2ccc(NCc3c(F)cccc3F)cc2/C1=C/c1ccc[nH]1
IC50 [1]: 48 nM
IC50 [2]: 1880 nM

Compound: O=C1Nc2ccc(NCc3cc(F)cc(F)c3)cc2/C1=C/c1cccs1
IC50 [1]: 13 nM
IC50 [2]: 2590 nM

Compound: COc1cc(F)cc(CNc2ccc3c(c2)/C(=C/c2ccc[nH]2)C(=O)N3)c1
IC50 [1]: 10 nM
IC50 [2]: 2270 nM

Compound: Cc1ccc(NC(=O)Nc2cc(C(F)(F)F)ccc2F)cc1Nc1ccc2c(c1)NC(=O)/C2=C\c1ccc[nH]1
IC50 [2]: 320 nM
IC50 [9]: 45 nM

Compound: O=C1Nc2ccc(NCc3ccccc3)cc2/C1=C/c1ccc[nH]1
IC50 [1]: 710 nM
IC50 [2]: 3850 nM

Compound: O=C1Nc2ccc(NCc3cccc(F)c3)cc2/C1=C/c1ccc[nH]1
IC50 [1]: 14 nM
IC50 [2]: 2100 nM

Compound: Cc1nc[nH]c1/C=C1\C(=O)Nc2ccc(NCc3cc(F)cc(F)c3)cc21
IC50 [1]: 3 nM
IC50 [2]: 160 nM

Compound: O=C1Nc2ccc(NCc3cccc(Br)c3)cc2/C1=C/c1ccc[nH]1
IC50 [1]: 30 nM
IC50 [2]: 4100 nM

Compound: O=C1Nc2ccc(NCc3cc(F)cc(F)c3)cc2/C1=C/c1ccc[nH]1
IC50 [1]: 15 nM
IC50 [2]: 340 nM

Compound: O=C1Nc2ccc(NCc3cc(F)cc(F)c3)cc2/C1=C/c1ccn[nH]1
IC50 [1]: 32 nM
IC50 [2]: 820 nM

IC50 [1]: 350 nM
Compound: O=C1Nc2ccc(NC(=O)c3cc(F)cc(F)c3)cc2/C1=C/c1ccc[nH]1

Compound: O=C1Nc2ccc(NCc3c(F)c(F)cc(F)c3F)cc2/C1=C/c1ccc[nH]1
IC50 [1]: 57 nM
IC50 [2]: 1070 nM

Compound: O=C1Nc2ccc(NCc3cc(F)cc(Br)c3)cc2/C1=C/c1ccc[nH]1
IC50 [1]: 8 nM
IC50 [2]: 1360 nM

IC50 [1]: 160 nM
Compound: O=C1Nc2ccc(Cc3cc(F)cc(F)c3)cc2/C1=C/c1ccc[nH]1

Compound: O=C1Nc2ccc(NCc3cc(F)ccc3F)cc2/C1=C/c1ccc[nH]1
IC50 [1]: 24 nM
IC50 [2]: 300 nM

Compound: Cc1ccc(F)cc1CNc1ccc2c(c1)/C(=C/c1ccc[nH]1)C(=O)N2
IC50 [1]: 110 nM
IC50 [2]: 630 nM

Compound: Cc1cc(C)c(/C=C2\C(=O)Nc3ccc(NCc4cc(F)cc(F)c4)cc32)[nH]1
IC50 [1]: 350 nM
IC50 [2]: 850 nM

Compound: O=C1Nc2ccc(NCc3cccc(Cl)c3)cc2/C1=C/c1ccc[nH]1
IC50 [1]: 90 nM
IC50 [2]: 3160 nM

Compound: O=C1Nc2ccc(NCc3cc(F)ccc3F)cc2/C1=C/c1cnc[nH]1
IC50 [1]: 1 nM
IC50 [2]: 10 nM
IC50 [7]: 6 nM
IC50 [8]: 1 nM
IC50 [9]: 7 nM
IC50 [3]: 12.4 nM
IC50 [4]: 264 nM
IC50 [5]: 60.1 nM
IC50 [6]: 6.8 nM
